Experimental data taken from patent publication US12492410B2, “Engineered cytolytic immunecell” (Autolus Limited, priority 2018, dated 2025).

Assays:
[1] = tested on: minocycline dAb (SEQ ID NO: 8); assay: Phage-peptide screening for minocycline-displaceable binding to minocycline dAb; details: for displaceable specificity for minocycline dAb: minocycline dAb-Fc immobilised on beads, with and without 1 μM minocycline, control antibody SEQ ID NO: 13; for affinity of peptide for minocycline dAb: stated in words
Chain of minocycline dAb (SEQ ID NO: 8) (as listed by the source): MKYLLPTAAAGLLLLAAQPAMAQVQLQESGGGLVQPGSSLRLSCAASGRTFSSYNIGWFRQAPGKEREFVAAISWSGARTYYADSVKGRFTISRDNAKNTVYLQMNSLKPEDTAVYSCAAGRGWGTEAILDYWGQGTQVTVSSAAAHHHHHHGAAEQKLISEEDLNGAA
Method: FIG. 4—Graphs showing minocycline displaceable binding of peptides SEQ ID NO: 34, SEQ ID NO: 35, SEQ ID NO: 36 and SEQ ID NO: 37 to minocycline dAb (SEQ ID NO: 8) versus control antibody (SEQ ID NO: 13).
A minocycline dAb-Fc was immobilised on beads. The minocycline dAb was encoded by SEQ ID NO: 8. Phage-peptide colony screening was performed with and without 1 μM minocycline.
An antibody comprising SEQ ID NO: 13 was used as a control antibody (the control antibody comprises different CDRs to SEQ ID NO: 8).

HEK293T cells = assay: Minocycline induced secretion of ER retained IL12, IL12 ELISA of supernatant; type: cell-based; details: IL12 fused to the peptide, in the presence of KDEL anchored minocycline dAb; minocycline 0 μM; all time points (2 and 4 hours)
Method: FIGS. 5A, 5B and 5C—Minocycline induced secretion of ER retained IL12 HEK293T cells were transiently transfected with constructs expressing the intracellular KDEL tagged anti-minocycline dAb and dAb-specific peptide (GWARA or PWAYS) tagged IL-12 (A). Transfection efficiency determined by staining for HA marker expression with transfection efficiency ranging from 50-70% (B). […] Supernatant was collected 2 and 4 hours post minocycline addition and IL12 ELISA readout carried out (C).
The KDEL amino acid sequence was used to retain proteins within the ER/Golgi apparatus. The minocycline specific dAb was tagged with the KDEL sequence (SEQ ID NO: 29) thus anchoring it within with the ER/Golgi and a molecule of interest (IL12) is in turn tagged with the peptide with affinity to the dAb causing its retention. Upon addition of minocycline, the dAb-peptide complex dissociates enabling secretion of the peptide-tagged molecule.
HEK293T cells were seeded at […] in 96-well plates to achieve confluency of 50-60% for next day transfection. A transfection master mix was made by adding 30 μL of GeneJuice transfection reagent to 470 μL plain IMDM and incubating for 5 minutes. For each well, 0.13 μg of plasmid DNA was then added to 5.2 uL of the IMDM-Genejuice master mix and incubated for 15 minutes. Transfection mix containing the GeneJuice-DNA complex was then added to the cells. […]

| Sequence | displaceable specificity for minocycline dAb [1] | affinity of peptide for minocycline dAb [1] | IL12 secretion (HEK293T cells) |
| --- | --- | --- | --- |
| ACPPWAYSFC (minocycline peptide mimic) [SEQ ID NO: 37] | displaceable specificity | low affinity | concentration dependent increase |
| ACPQWAMMFC (minocycline peptide mimic) [SEQ ID NO: 36] | displaceable specificity |  |  |
| ACPGWARAFC (minocycline peptide mimic) [SEQ ID NO: 34] | displaceable specificity | high affinity | concentration dependent increase |
| ACPHWAQAFC (minocycline peptide mimic) [SEQ ID NO: 35] | displaceable specificity |  |  |
